Laboratory results from PMC3237458, “PEGylation Potentiates the Effectiveness of an Antagonistic Peptide That Targets the EphB4 Receptor with Nanomolar Affinity” (PLoS ONE, 2011).
“Also recorded” adds a separate entry of the source. Square brackets hold non-standard residues; d marks the D form. Peptide text beside a SMILES is read from it. * marks the point of attachment. Biotin = O=C1N[C@H]2[C@H](CS[C@H]2CCCCC(=O)*)N1; Ahx = NCCCCCC(=O)O

Assays:
EphB4 [1] = biological target: T1, EphB4 (Mus musculus, UniProt P54761); assay: Ephrin-B2-induced EphB4 tyrosine phosphorylation in B16 melanoma cells (immunoprecipitation/immunoblot); assay type: cell-based; conditions: 24 hours pretreatment, Figure 4A
T1 construct: tyrosine phosphorylation of endogenous EphB4 expressed in B16 melanoma cells; host or cells: B16-F10-luc-G5 melanoma cells
T1 sequence (P54761 16-987): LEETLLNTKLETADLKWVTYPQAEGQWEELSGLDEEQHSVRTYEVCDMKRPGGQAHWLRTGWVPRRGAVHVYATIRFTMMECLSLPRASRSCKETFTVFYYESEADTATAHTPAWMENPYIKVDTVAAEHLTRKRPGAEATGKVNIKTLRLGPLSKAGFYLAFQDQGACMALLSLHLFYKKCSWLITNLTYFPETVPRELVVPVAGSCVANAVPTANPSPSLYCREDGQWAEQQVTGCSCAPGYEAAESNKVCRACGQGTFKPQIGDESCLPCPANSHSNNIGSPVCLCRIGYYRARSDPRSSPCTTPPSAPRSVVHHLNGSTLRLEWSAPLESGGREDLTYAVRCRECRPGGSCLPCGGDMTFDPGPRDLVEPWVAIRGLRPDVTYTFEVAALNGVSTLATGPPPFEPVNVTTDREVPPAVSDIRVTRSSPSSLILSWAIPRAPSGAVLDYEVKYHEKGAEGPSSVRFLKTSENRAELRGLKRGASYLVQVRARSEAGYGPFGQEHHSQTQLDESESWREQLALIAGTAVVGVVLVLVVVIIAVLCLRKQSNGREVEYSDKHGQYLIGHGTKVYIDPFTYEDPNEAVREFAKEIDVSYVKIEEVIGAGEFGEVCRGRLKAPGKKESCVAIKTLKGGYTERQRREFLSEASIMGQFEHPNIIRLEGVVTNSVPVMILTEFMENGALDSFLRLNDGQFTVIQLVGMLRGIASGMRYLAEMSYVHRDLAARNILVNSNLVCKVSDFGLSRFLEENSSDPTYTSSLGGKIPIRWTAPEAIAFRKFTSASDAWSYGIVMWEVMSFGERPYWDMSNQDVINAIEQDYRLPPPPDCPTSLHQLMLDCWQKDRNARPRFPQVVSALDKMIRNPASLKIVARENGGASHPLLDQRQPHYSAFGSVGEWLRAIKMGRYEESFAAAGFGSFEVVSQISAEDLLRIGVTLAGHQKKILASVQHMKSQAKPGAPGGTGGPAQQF
Experimental: B16-F10-luc-G5 melanoma cells, which endogenously express EphB4, were serum starved for 1–3 hours in Eagle's MEM/EBSS containing 0.5% FBS and incubated for 15 min or 24 hours with different concentrations of PEG-TNYL-RAW. The cells were then stimulated for 20 min with 1.5 µg/ml ephrin-B2 Fc, which had been preclustered with a 3 fold excess of an anti-Fc antibody, in the continued presence of the peptide. HUVECs, EMCs or a 1∶1 mixture of the two cell types were plated for 20 hours in complete medium in the presence of PEG or PEG-TNYL-RAW. Medium 200 was used for HUVECs and HUVECs and EMCs co-cultures, DMEM was used for EMCs. The cells were lysed in modified RIPA buffer (1% Triton X-100, 1% Na deoxycholate; 0.1% SDS; 20 mM Tris; 150 mM NaCl; 1 mM EDTA) containing 10 µM NaF, 1 µM sodium pervanadate and protease inhibitors. Protein concentrations were measured using the BCA protein assay kit (Pierce Biotechnology, Rockford, IL). For immunoprecipitations, cell lysates were incubated with 20 µg of an anti-EphB4 antibody made to a GST fusion protein of the EphB4 SAM domain and carboxy-terminal tail immobilized on GammaBind Sepharose beads (GE Healthcare Life Sciences). […]

mouse EphB4 = conditions: mouse EphB4, surface plasmon resonance; cited from earlier work
Source text: (§1) Inhibiting EphB4-ephrin-B2 interaction could therefore be useful for diverse medical applications. […] A 15 amino acid-long EphB4 antagonistic peptide, TNYL-RAW (TNYLFSPNGPIARAW), could represent an alternative to the large EphB4 e ...

human EphB4 = conditions: human EphB4, isothermal titration calorimetry; cited from earlier work
Source text: as §1

Eph receptors = conditions: cited from earlier work
Source text: as §1

EphB4 [2] = conditions: cell culture; cited from earlier work
Experimental: An explanation for the discrepancy in the potency of the peptide in biochemical and cell culture assays could be that TNYL-RAW is susceptible to degradation by proteases present in cell culture medium. For example, trypsin-like proteases are l ... || Despite the low nanomolar EphB4 binding affinity of TNYL-RAW, the very short half-life of the peptide greatly limits its effectiveness, as exemplified by the high concentrations (10–100 µM) needed to inhibit EphB4-ephrin-B2 interaction in cell culture, [33], [36], [37]. We used three strategies to improve TNYL-RAW stability in cell culture and circulating half-life: fusion with Fc, complexation with streptavidin and covalent coupling to 40 KDa polymeric PEG molecules. Fusion with Fc has been successfully used to improve the stability and pharmacokinetic properties of numerous prot ...

HUVECs and EMCs = assay: Capillary-like tube formation on Matrigel; assay type: cell-based; conditions: HUVECs and EMCs 2:1, Matrigel, 15 hours; TNYL-RAW tested up to 20 µM; Figure 6
Experimental: An EMC clone expressing EGFP was generated by transducing EMCs (a kind gift from H. Eid) with a lentiviral construct followed by clonal selection. To generate capillary-like tubes, HUVECs (2.8×10^4), EMCs (7.5×10^4) or a mixture of the two cell types (2.8×10^4 HUVECs and 1.4×10^4 EMCs) were grown for 5 to 20 hours in 24-well tissue culture plates (Corning, Corning, NY) precoated with 80 µl Matrigel (BD Bioscience, San Jose, CA) in Medium 200 or DMEM complete culture medium containing PEG-TNYL-RAW or PEG control. In some experiments, mixed cultures were treated with TNYL-RAW or DMSO control. The cells were then fixed for 15 min in 4% formaldehyde in PBS and photographed under a fluorescence microscope. Tube length was quantified using ImageJ software.

## CC[C@H](C)[C@H](NC(=O)[C@@H]1CCCN1C(=O)CNC(=O)[C@H](CC(N)=O)NC(=O)[C@@H]1CCCN1C(=O)[C@H](CO)NC(=O)[C@H](Cc1ccccc1)NC(=O)[C@H](CC(C)C)NC(=O)[C@H](Cc1ccc(O)cc1)NC(=O)[C@H](CC(N)=O)NC(=O)[C@@H](N)[C@@H](C)O)C(=O)N[C@@H](C)C(=O)N[C@@H](CCCNC(=N)N)C(=O)N[C@@H](C)C(=O)N[C@@H](Cc1c[nH]c2ccccc12)C(=O)NCCCCCC(=O)N[C@@H](CCCCNC(=O)CCCC[C@@H]1SC[C@@H]2NC(=O)N[C@@H]21)C(N)=O [TNYL-RAW] (H-TNYLFSPNGPIARAW[Ahx]K(Biotin)-NH2; N-terminus and C-terminus assumed)
EphB4 [1]
  Inhibitory activity on EphB4 phosphorylation after 24 hours of incubation with cells: ineffective
Mouse EphB4
  Kd: 3 nM
Human EphB4
  Kd: 70 nM
Eph receptors
  Selectivity of binding among Eph receptors: selectively binds to EphB4 but not any other Eph receptor
EphB4 [2]
  Peptide concentrations needed to substantially inhibit ephrin-B2-induced EphB4 tyrosine phosphorylation and downstream effects / EphB4-ephrin-B2 interaction in cultured cells: 10 to 100 µM
HUVECs and EMCs
  Effect on capillary-like tube formation in co-cultures at different concentrations: does not have significant effects; also recorded: does not have a significant effect
